In patent US7153822B2, “Compositions and methods for modulating connexin hemichannels” (Wyeth, priority 2002, dated 2006):
Entries after “also recorded” stand apart in the source; their conditions may differ. Square brackets hold non-standard residues; d marks the D form. Peptide text beside a SMILES is read from it. dHyp = O=C(O)[C@H]1C[C@H](O)CN1

Assays:
[1] = rat, in vivo, sc
Experimental: Compound 1 was delivered by an osmotic minipump (Alzet model 2ML4) that was inserted into the intraperitoneal (i.p.) cavity immediately prior to induction of the myocardial infarction. The pump was filled with vehicle (isotonic saline) or Compound 1 and primed at 37° C. for 24 hours prior to the operation. In order to ensure that the therapeutic plasma concentration was obtained already at the time of infarction, a loading dose of Compound 1 was given s.c. prior to ligation of the LAD.
After administration of the s.c. loading dose of Compound 1 and after i.p. insertion of the osmotic minipump, a left thoracotomy was performed, and the left anterior decending artery was ligated using a 6-0 silk suture. The thorax is closed in layers, and a negative pressure was induced in the pleural cavity to unfold the lungs. Sham-operated animals were subjected to the same procedure without ligation of the LAD. Postoperatively, the animal were allowed to recover in a heated cabinet at 30° C. with 50% oxygen until the next morning. To prevent dehydration during the recovery period, the rat was given 5 ml 5% glucose s.c. immediately after completion of surgery and another 5 ml 5% glucose at 4 p.m. To relieve postoperative pain, the rat was treated with buprenorphine (20 μg/100 g s.c. b.i.d.) and meloxicam (0.1 mg/100 g s.c. once daily) for three days after the myocardial infarction. […] Plasma concentrations of Compound 1 were measured by mass spectrometry following solid phase extraction.

[2] = tested on: neonatal rat ventricular cardiomyocytes; settings: cited from earlier work
infarcted mice = experiment: bone marrow cell transplantation after myocardial infarction (design of Orlic et al); type: in vivo; settings: repeated administration during the proliferation process
From the text: Myocardial infarction leads to loss of tissue and impairment of cardiac performance. The remaining myocytes are unable to reconstitute the necrotic tissue, and the post-infarcted heart deteriorates with time. Injury to a target organ is sensed by distant stem cells, which migrate to the site of damage and undergo alternate stem cell differentiation; these events promote structural and functional repair. This high degree of stem cell plasticity prompted Orlic et al (Nature 410, 701–705 (2001)) to test whether dead myocardium could be restored by transplanting bone marrow cells in infarcted mice. They sorted lineage-negative (Lin−) bone marrow cells from transgenic mice expressing enhanced green fluorescent protein by fluorescence-activated cell sorting on the basis of c-kit expression. Shortly after coronary ligation, Lin− c-kitPOS cells were injected in the contracting wall bordering the infarct. […] The developing tissue comprised proliferating myocytes and vascular structures. Their studies indicate that locally delivered bone marrow cells can generate de novo myocardium, ameliorating the outcome of coronary artery disease. […]

connexin hemi-channels = experiment: calcein dye uptake in cardiomyocytes under stress buffer (Example 6); type: cell-based, rat
Experimental: 1. Methods Ventricular myocytes were isolated from neonate rats by trypsin digestion and plated onto collagen-coated cover slips. After four days the myocytes formed confluent and synchronously beating sheets of cells. To measure dye uptake, cells were incubated in buffer containing 200 μM calcein for 30 minutes at room temperature. Then coverslips were thoroughly washed with control buffer and mounted in an open bath chamber and superfused with control buffer (RT). Cells were excited with 480 nm light by means of a Xenon lamp and a monochromator. Images of the fluorescence emitted at 510 nm were collected by a cooled CCD camera (Sensicam). Excitation control and image acquisition was controlled using Imaging workbench (Axon).
Under light microscopy three regions were placed over cardiomyocytes in an image. Then average fluorescence intensity was measured, and the procedure was repeated until 30 regions in 10 images had been measured. The average of these measurements were used as value for the given experimental condition, that is n=1. In each series one control incubation was performed and all experimental values are given as relative to this value.
(§1) Solutions: Control buffer (in mM): NaCl 136, KCl 4, MgCl2 0.8, CaCl2 1.8 HEPES 5, MES 5, Glucose 6, pH 7.3 Stress buffer (in mM): NaCl 136, KCl 8, MgCl2 0.8, CaCl2 1.8 HEPES 5, MES 5, Deoxy-glucose 10, pH 6.2

connexin 43 (Cx43) = experiment: immunoprecipitation and immunoblot of phosphorylated connexin 43; type: cell-based
Experimental: H9c2 cells were seeded in 24-multi well dishes in a density of 7,900 cells/cm^2 (˜15,000 cells/well) and grown for 3 days in MEM suplemented with 10% foetal calf serum (FCS) and 1000 units penicillin/1000 μg streptomycin (pen/strep) in an atmosphere of 5% CO2 and 100% humidity at 37° C.
The labelled cells were incubated in Triton X-100 lysis buffer (˜5*10^7 cells/ml) for 1 hr at 4° C. The lysate is centrifuged 30 min at 20,000*g for 30 min. The supernatant was precleared by adding 10 ul Sepharose per 200 μl supernatant. The precleared supernatant were then added 0.5–1 μg phospho-tyrosine or phospho-serine antibodies (Sigma) and incubated for 1.5 hr at 4° C. in an orbital shaker. The antibody-complex was then captured by incubation with 50 μl of a 1:1 slurry of protein G Sepharose for 1.5 hr. Finally the complex were extensively washed with 0.1% (w/v) Triton X-100, 50 mM Tris, pH 7.4, 300 mM NaCl and 5 mM EDTA.
The complexes were loaded onto a 12% SDS gel and blotted onto a PVDF membrane. The membrane is blocked with 0.1% Tween 20, 50 mM Tris, pH 7.4, 300 mM NaCl, 5% dry milk (TBST) for minimum 2 h. The membrane was subsequently incubated with connexin 43 specific antibodies (Zymed) for 1.5 h at RT and developed with ECL+ (Amersham).

[3] = tested on: human osteoblast cultures; settings: dye transfer after Lucifer Yellow injection; cited from earlier work
Ventricular myocytes = experiment: volume measurements in cardiomyocytes during metabolic inhibition; type: cell-based, rat; settings: 0.1 nM in stress medium, six experiments (stress alone 1.06±0.02, control 0.94±0.04)
Experimental: 1. Methods: Ventricular myocytes were isolated from neonate rats by trypsin digestion and plated onto collagen-coated cover slips. After four days the myocytes formed confluent and synchronously beating sheets of cells. To measure cell volume cells were loaded with calcein-AM (5 μM in control buffer) for 15 minutes at 37° C. and the cover slips mounted in an open bath chamber. The following experiments were performed at room temperature. Using a Leica laser confocal microscope, an optical cross-section was performed every 20 seconds throughout the duration of the experiments.
The optical cross-sections were analyzed using Metamorph (Universal Imaging). The area of the cell was determined as the area of pixels with fluorescence intensities higher than a threshold value chosen to minimize background induced fluctuations. Data are presented as relative volumes by dividing each value by the average area under control conditions (the last measurement before metabolic stress).
as §1

the receptor = experiment: in situ binding and animal studies
Experimental: Compounds used in this example were made using standard solid phase Fmoc chemistry. See the prior examples. Identification was performed by mass spectrometry, and the purity, determined by RP-HPLC. […] Initial studies with compound 1 in 1 nM, 10 nM, 50 nM and 100 nM will determine whether studies with the following peptides compound 3 (H-GAG-4-Hyp-PY-NH2) and compound 4 (H-GNY-NH2) are conducted. These studies will also determine whether studies involving specific kinase inhibitors are conducted.

SMILES: CC(=O)N[C@H](Cc1ccc(O)cc1)C(=O)N1CCC[C@@H]1C(=O)N1C[C@@H](O)C[C@@H]1C(=O)NCC(=O)N[C@H](C)C(=O)NCC(N)=O [Compound 1, Ac-D-Tyr-D-Pro-D-4Hyp-Gly-D-Ala-Gly-NH2] (Ac-[dY][dP][dHyp]G[dA]G-NH2)
- time to steady-state plasma level [1]: 3 min
- noradrenalin-induced PI turnover, level relative to normal ([2]; during oxygen and glucose deprivation (untreated app. 50%)): ~90 % of the normal level
- noradrenalin-induced level of PI turnover ([2]; normal atmospheric and nutritional conditions): does not alter
- connexin 43 expression (infarcted mice): increase in connexin 43 expression
- EC50 (connexin hemi-channels; 0.1 pM to 10 nM, sigmoidal function, read-out: ED50 for reduction of stress-induced calcein uptake): 3.3 ± 5.3 pM
- average fluorescence intensity during maximal inhibition, above control (connexin hemi-channels; stress buffer (stress alone 36.2±4.18% higher)): 6.9±1.7 % above control
- effect on uptake of calcein (connexin hemi-channels; stress, 0.1 pM to 10 nM): dose-dependently reduced the uptake of calcein
- connexin 43 tyrosine phosphorylation (connexin 43 (Cx43); cardiomyocytes exposed for 4 h with 0, 1, 10, 50 and 100 nM): increase connexin 43 tyrosine phosphorylation
- tyrosine phosphorylation of connexin 43 (connexin 43 (Cx43); cultured H9c2 cardiomyocytes): phosphorylation of Cx43 tyrosine; also recorded: mediates tyrosine phosphorylation of connexin 43
- Ser-phosphorylation of connexin 43 (connexin 43 (Cx43); in some experiments): decrease Ser-phosphorylation
- reversal of hypoxia-induced decrease of calcium wave propagation [3]: completely reversed
- average relative volume during stress (Ventricular myocytes): 0.93±0.05
- binding to the receptor (the receptor): nano-molar range
